Experimental data: PubChem BioAssay (NCI)
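Exposure lasted 48 hours, with cells grown in 96-well plates and compounds tested at five concentrations. Here, GI50 denotes the concentration required for 50% inhibition of growth. TGI: total growth inhibition.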

How the values were obtained:
Test in all cases: NCI anticancer screen, dose series, 48 h
[1] = system: OVCAR-3 ovarian
[2] = system: NCI-H460 lung
[3] = system: HCT-116 colon
[4] = system: SNB-75 CNS
[5] = system: OVCAR-5 ovarian
[6] = system: DU-145 prostate
[7] = system: PC-3 prostate
[8] = system: HCC-2998 colon
[9] = system: SNB-19 CNS
[10] = system: HL-60(TB) leukemia
[11] = system: UACC-62 melanoma
[12] = system: 786-0 renal
[13] = system: SK-MEL-5 melanoma
[14] = system: SN12C renal
[15] = system: HS 578T breast
[16] = system: LOX IMVI melanoma
[17] = system: TK-10 renal
[18] = system: NCI-H522 lung
[19] = system: EKVX NSCLC
[20] = system: SK-MEL-2 melanoma
[21] = system: SR leukemia
[22] = system: MOLT-4 leukemia
[23] = system: OVCAR-4 ovarian
[24] = system: ACHN renal
[25] = system: MDA-MB-435
[26] = system: UACC-257 melanoma
[27] = system: M14 melanoma
[28] = system: SK-OV-3 ovarian
[29] = system: OVCAR-8 ovarian
[30] = system: HT29 colon
[31] = system: A498 renal
[32] = system: HOP-92 NSCLC
[33] = system: NCI-H23 lung
[34] = system: SW-620 colon
[35] = system: HCT-15 colon
[36] = system: SF-539 CNS
[37] = system: MALME-3M melanoma
[38] = system: HOP-62 NSCLC
[39] = system: SF-295 CNS
[40] = system: MCF7 breast
[41] = system: COLO 205 colon
[42] = system: IGROV1 ovarian
[43] = system: SF-268 CNS
[44] = system: CAKI-1 renal
[45] = system: KM12 colon
[46] = system: UO-31 renal
[47] = system: K-562 leukemia
[48] = system: NCI-H226 lung
[49] = system: U251 CNS
[50] = system: T-47D breast
[51] = system: MDA-MB-231 breast
[52] = system: NCI/ADR-RES ovarian
[53] = system: SK-MEL-28 melanoma
[54] = system: BT-549 breast

SMILES: C=C(C)[C@@H]1C/C=C(\COC(=O)[C@H](OC(C)=O)C(NC(=O)c2ccccc2)c2ccccc2)CC[C@H]2O[C@]2(C)CC/C=C(\C)CC1 (stereo partly drawn)
- GI50 [1]: 12.2 µM
- TGI [1]: 44.5 µM
- GI50 [2]: 15.5 µM
- TGI [2]: > 50 µM
- GI50 [3]: 12.3 µM
- TGI [3]: 38.1 µM
- GI50 [4]: 17.6 µM
- TGI [4]: > 50 µM
- GI50 [5]: 32.1 µM
- TGI [5]: > 50 µM
- GI50 [6]: 19.3 µM
- TGI [6]: > 50 µM
- GI50 [7]: 13.3 µM
- TGI [7]: > 50 µM
- GI50 [8]: 15.1 µM
- TGI [8]: 45.4 µM
- GI50 [9]: 27.8 µM
- TGI [9]: > 50 µM
- GI50 [10]: 4.2 µM
- TGI [10]: > 50 µM
- GI50 [11]: 16.8 µM
- TGI [11]: > 50 µM
- GI50 [12]: 18.5 µM
- TGI [12]: > 50 µM
- GI50 [13]: 11.8 µM
- TGI [13]: 28 µM
- GI50 [14]: 10.3 µM
- TGI [14]: 23 µM
- GI50 [15]: 15.2 µM
- TGI [15]: 49.4 µM
- GI50 [16]: 8.98 µM
- TGI [16]: 19.3 µM
- GI50 [17]: 18.8 µM
- TGI [17]: > 50 µM
- GI50 [18]: 12.1 µM
- TGI [18]: > 50 µM
- GI50 [19]: 18.6 µM
- TGI [19]: > 50 µM
- GI50 [20]: 16.7 µM
- TGI [20]: > 50 µM
- GI50 [21]: 23.3 µM
- TGI [21]: > 50 µM
- GI50 [22]: 17.6 µM
- TGI [22]: > 50 µM
- GI50 [23]: 15.4 µM
- TGI [23]: > 50 µM
- GI50 [24]: 14.6 µM
- TGI [24]: > 50 µM
- GI50 [25]: 16.8 µM
- TGI [25]: > 50 µM
- GI50 [26]: 23.3 µM
- TGI [26]: > 50 µM
- GI50 [27]: 20.7 µM
- TGI [27]: > 50 µM
- GI50 [28]: > 50 µM
- TGI [28]: > 50 µM
- GI50 [29]: 37.7 µM
- TGI [29]: > 50 µM
- GI50 [30]: 13.2 µM
- TGI [30]: 31.8 µM
- GI50 [31]: 13.1 µM
- TGI [31]: 44.5 µM
- GI50 [32]: 31.8 µM
- TGI [32]: > 50 µM
- GI50 [33]: 19.3 µM
- TGI [33]: > 50 µM
- GI50 [34]: 16.8 µM
- TGI [34]: 49.7 µM
- GI50 [35]: 12.4 µM
- TGI [35]: > 50 µM
- GI50 [36]: 11.2 µM
- TGI [36]: 27.1 µM
- GI50 [37]: 14.3 µM
- TGI [37]: 42.6 µM
- GI50 [38]: 31.2 µM
- TGI [38]: > 50 µM
- GI50 [39]: 13.2 µM
- TGI [39]: > 50 µM
- GI50 [40]: 8.94 µM
- TGI [40]: 22.1 µM
- GI50 [41]: 11.2 µM
- TGI [41]: 25.8 µM
- GI50 [42]: 17.7 µM
- TGI [42]: > 50 µM
- GI50 [43]: 18.2 µM
- TGI [43]: > 50 µM
- GI50 [44]: 8.64 µM
- TGI [44]: 17.8 µM
- GI50 [45]: 18.7 µM
- TGI [45]: > 50 µM
- GI50 [46]: 20.6 µM
- TGI [46]: > 50 µM
- GI50 [47]: 30.8 µM
- TGI [47]: > 50 µM
- GI50 [48]: 21.7 µM
- TGI [48]: > 50 µM
- GI50 [49]: 14.9 µM
- TGI [49]: > 50 µM
- GI50 [50]: 23.1 µM
- TGI [50]: > 50 µM
- GI50 [51]: 12 µM
- TGI [51]: > 50 µM
- GI50 [52]: 18.1 µM
- TGI [52]: > 50 µM
- GI50 [53]: 16.6 µM
- TGI [53]: > 50 µM
- GI50 [54]: 12.9 µM
- TGI [54]: 45.4 µM
